Test results: patent US10030020B2, “Spirocycle compounds and methods of making and using same” (Abide Therapeutics, Inc., priority 2016, dated 2018)

What was measured:
[1] = target: T1, FAAH (Mus musculus (Mouse), UniProt O08914); assay: In vitro competitive activity-based protein profiling (mouse brain membrane fraction or cell lysates), FAAH band; assay type: biochemical; conditions: mouse; for inhibition at 1 µM: read-out: FAAH % Inh 1 μM (mouse)
Method in brief: (§1)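 Competitive ABPP: proteome 1.0 mg/mL protein + inhibitor, 30 min, 37° C; FP-Rh probe (stock 50 μM in DMSO) added, 30 min, 37° C; SDS quench, SDS-PAGE, fluorescent band intensity read.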

[2] = target: T2, MAGL (Mus musculus (Mouse), UniProt O35678); assay: Mouse brain proteomes from inhibitor treated mice (oral gavage, sacrificed 4 h after administration, ABPP analysis); assay type: in vivo, mouse (C57Bl/6J); conditions: 5 mg/kg oral gavage
Method in brief: (§2)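 Mice (wild-type C57Bl/6J) receive inhibitor by oral gavage, e.g. in PEG400/Ethanol/PBS (7/2/1). Each animal is killed 4 h later. Brain proteomes are prepared and analyzed by ABPP, giving % inhibition at 5 mg/kg.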

[3] = target: T2, MAGL; assay: In vitro competitive activity-based protein profiling (mouse brain membrane fraction or cell lysates), MAGL band; assay type: biochemical; conditions: mouse; for inhibition at 1 µM: read-out: MAGL % Inh 1 μM (mouse)
Procedure: In Vitro Competitive Activity-Based Protein Profiling.
Proteomes (mouse brain membrane fraction or cell lysates) (50 μL, 1.0 mg/mL total protein concentration) were preincubated with varying concentrations of inhibitors at 37° C. After 30 min, FP—Rh (1.0 μL, 50 μM in DMSO) was added and the mixture was incubated for another 30 min at 37° C. Reactions were quenched with SDS loading buffer (50 μL-4×) and run on SDS-PAGE.

[4] = target: T3, ABHD6 (Mus musculus (Mouse), UniProt Q8R2Y0); assay: Mouse brain proteomes from inhibitor treated mice (oral gavage, sacrificed 4 h after administration, ABPP analysis), ABHD6; assay type: in vivo, mouse (C57Bl/6J); conditions: 5 mg/kg oral gavage
Method in brief: as §2

[5] = target: MAGL (Homo sapiens (Human), UniProt Q99685); assay: In vitro competitive activity-based protein profiling (human prefrontal cortex or cell membrane fractions; hMAGL expressed in HEK293T cells); assay type: biochemical; conditions: human
Method in brief: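 Human prefrontal cortex or cell membrane proteomes (1.0-2.0 mg/mL), or lysates of HEK293T cells expressing hMAGL diluted into mock proteome, preincubated with inhibitor 30 min at 37° C. FP-Rh or JW912 probe then added for 30 min at room temperature. Residual labeling resolved by SDS-PAGE.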

[6] = target: T1, FAAH; assay: Mouse brain proteomes from inhibitor treated mice (oral gavage, sacrificed 4 h after administration, ABPP analysis), FAAH; assay type: in vivo, mouse (C57Bl/6J); conditions: 5 mg/kg oral gavage
Method in brief: as §2

[7] = target: T3, ABHD6; assay: In vitro competitive activity-based protein profiling (mouse brain membrane fraction or cell lysates), ABHD6 band; assay type: biochemical; conditions: mouse; for inhibition at 1 µM: read-out: ABHD6 % Inh 1 μM (mouse)
Method in brief: as §1

T2 sequence (O35678 whole entry): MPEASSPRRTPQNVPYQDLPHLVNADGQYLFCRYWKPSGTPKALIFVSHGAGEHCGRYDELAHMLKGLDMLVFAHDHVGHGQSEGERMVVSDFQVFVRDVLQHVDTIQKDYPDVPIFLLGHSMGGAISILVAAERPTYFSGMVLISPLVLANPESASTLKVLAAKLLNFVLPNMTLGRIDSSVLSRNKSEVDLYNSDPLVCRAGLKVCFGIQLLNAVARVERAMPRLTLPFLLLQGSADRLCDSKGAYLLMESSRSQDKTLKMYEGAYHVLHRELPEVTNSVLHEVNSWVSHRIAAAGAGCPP
T3 sequence (Q8R2Y0 whole entry): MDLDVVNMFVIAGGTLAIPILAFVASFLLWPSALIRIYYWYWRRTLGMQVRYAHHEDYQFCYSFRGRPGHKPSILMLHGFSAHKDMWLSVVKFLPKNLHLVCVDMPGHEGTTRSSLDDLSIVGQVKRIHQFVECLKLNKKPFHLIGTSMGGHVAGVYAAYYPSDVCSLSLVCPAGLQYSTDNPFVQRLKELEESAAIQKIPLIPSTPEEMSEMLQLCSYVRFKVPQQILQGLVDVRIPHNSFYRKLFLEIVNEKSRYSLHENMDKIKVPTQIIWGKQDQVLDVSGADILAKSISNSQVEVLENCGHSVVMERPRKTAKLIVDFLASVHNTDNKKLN
T1 sequence (O08914 whole entry): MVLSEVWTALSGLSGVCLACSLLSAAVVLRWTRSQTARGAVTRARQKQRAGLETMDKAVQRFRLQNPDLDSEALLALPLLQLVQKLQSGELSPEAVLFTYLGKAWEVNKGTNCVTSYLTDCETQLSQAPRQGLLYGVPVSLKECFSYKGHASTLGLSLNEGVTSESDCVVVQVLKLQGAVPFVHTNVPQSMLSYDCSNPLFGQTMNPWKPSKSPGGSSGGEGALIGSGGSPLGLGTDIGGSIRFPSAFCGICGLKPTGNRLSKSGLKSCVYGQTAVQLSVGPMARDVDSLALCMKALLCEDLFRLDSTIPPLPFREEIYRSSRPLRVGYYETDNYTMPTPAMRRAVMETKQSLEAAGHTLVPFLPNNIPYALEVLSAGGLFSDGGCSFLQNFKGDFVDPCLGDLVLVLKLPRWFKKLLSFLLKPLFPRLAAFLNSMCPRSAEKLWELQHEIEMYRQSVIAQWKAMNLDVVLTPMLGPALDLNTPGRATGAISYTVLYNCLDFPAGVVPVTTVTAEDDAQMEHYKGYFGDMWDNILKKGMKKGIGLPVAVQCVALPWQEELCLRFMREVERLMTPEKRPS
Chain of MAGL (Homo sapiens (Human), UniProt Q99685) (Q99685 whole entry): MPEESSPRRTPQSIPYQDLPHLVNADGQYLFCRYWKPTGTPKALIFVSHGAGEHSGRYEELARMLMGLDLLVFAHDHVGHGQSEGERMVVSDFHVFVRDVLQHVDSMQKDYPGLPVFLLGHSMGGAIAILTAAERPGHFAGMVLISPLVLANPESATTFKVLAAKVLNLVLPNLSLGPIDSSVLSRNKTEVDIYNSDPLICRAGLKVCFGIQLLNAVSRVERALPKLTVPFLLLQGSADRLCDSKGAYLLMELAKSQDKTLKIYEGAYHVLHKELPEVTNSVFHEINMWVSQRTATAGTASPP

SMILES	inhibition at 1 µM [1] [%]	MAGL % Inh 5 mg/kg (mouse) [2]	inhibition at 1 µM [3] [%]	ABHD6 % Inh 5 mg/kg (mouse) [4]	IC50 [5] [nM]	FAAH % Inh 5 mg/kg (mouse) [6]	inhibition at 1 µM [7] [%]	IC50 [1] [nM]	IC50 [3] [nM]	IC50 [7] [nM]
CC1(C(=O)O)CCN(c2cc(C(F)(F)F)ccc2CN2CCCC23CCN(C(=O)OC(C(F)(F)F)C(F)(F)F)CC3)C1 (stereo not shown) [Example 230]	< 25	## (## is equal to or greater than 25% but less than 75%)	> 75	# (# is <25%)	< 100	# (# is <25%)	< 25			
O=C(O)C1CCN(c2cc(F)cc(CN3CCCC34CCN(C(=O)OC(C(F)(F)F)C(F)(F)F)CC4)c2)CC1 [Example 236]	< 25	### (### is ≥75%)	> 75	# (# is <25%)	< 100	# (# is <25%)	< 25			
O=C(O)C1CCN(Cc2cc(C(F)(F)F)ccc2CN2CCCC23CCN(C(=O)OC(C(F)(F)F)C(F)(F)F)CC3)CC1 [Example 238]	< 25	### (### is ≥75%)	> 75	# (# is <25%)	< 100	# (# is <25%)	< 25	> 1000	100 to 1000	> 1000
O=C(O)C1CCN(c2cc(S(F)(F)(F)(F)F)ccc2CN2CCCC23CCN(C(=O)OC(C(F)(F)F)C(F)(F)F)CC3)CC1 [Example 240]	< 25	### (### is ≥75%)	> 75	# (# is <25%)	< 100	# (# is <25%)	< 25			
O=C(O)C1CCN(Cc2cc(CN3CCCC34CCN(C(=O)OC(C(F)(F)F)C(F)(F)F)CC4)cc(C(F)(F)F)c2)CC1 [Example 244]	< 25	### (### is ≥75%)	> 75	# (# is <25%)	< 100	# (# is <25%)	< 25			
O=C(O)C1CCN(c2cc(OC(F)(F)F)ccc2CN2CCCC23CCN(C(=O)OC(C(F)(F)F)C(F)(F)F)CC3)CC1 [Example 248]	< 25	### (### is ≥75%)	> 75	# (# is <25%)	< 100	# (# is <25%)	< 25			
N#Cc1ccc(CN2CCCC23CCN(C(=O)OC(C(F)(F)F)C(F)(F)F)CC3)c(N2CCC(C(=O)O)CC2)c1 [Example 249]	< 25	## (## is equal to or greater than 25% but less than 75%)	> 75	# (# is <25%)	< 100	# (# is <25%)	< 25			
O=C(O)C1CCN(Cc2cc(CN3CCCC34CCN(C(=O)OC(C(F)(F)F)C(F)(F)F)CC4)cc(C(F)(F)F)c2)C1 (stereo not shown) [Example 253]	< 25	## (## is equal to or greater than 25% but less than 75%)	> 75	# (# is <25%)	< 100	# (# is <25%)	< 25			
CC1(C(=O)O)CN(c2cc(C(F)(F)F)ccc2CN2CCC3(CCN(C(=O)OC(C(F)(F)F)C(F)(F)F)CC3)C2)CCO1 (stereo not shown) [Example 256]	< 25	# (# is <25%)	> 75	# (# is <25%)	< 100	# (# is <25%)	< 25			
O=C(O)C1CCN(Cc2cc(C(F)(F)F)ccc2CN2CCCC23CCN(C(=O)OC(C(F)(F)F)C(F)(F)F)CC3)C1 (stereo not shown) [Example 262]	< 25	## (## is equal to or greater than 25% but less than 75%)	> 75	# (# is <25%)	< 100	# (# is <25%)	< 25			
